From paper PMC9374744, “Structural basis for receptor selectivity and inverse agonism in S1P5 receptors” (Nature Communications, 2022)
pEC50: −log10 of the molar value. Where “and” joins values, the source holds several entries; their conditions need not be identical. Equal values may be shown once.

Experiments:
human S1P5 Y19A mutant = human S1P5 Y19A mutant (Homo sapiens, UniProt Q9H228, Y19A); test: BRET-based cAMP Gi signaling assay, S1P5 Y19A; conditions: inverse agonism
human S1P5 Y19F mutant = human S1P5 Y19F mutant (Homo sapiens, UniProt Q9H228, Y19F); test: BRET-based cAMP Gi signaling assay, S1P5 Y19F; conditions: for BRET ratio, Supplementary Figure 6b: replicate values, listed as ONO
human S1P5 K24A mutant = human S1P5 K24A mutant (Homo sapiens, UniProt Q9H228, K24A); test: BRET-based cAMP Gi signaling assay, S1P5 K24A; conditions: inverse agonism
human S1P5 K24Q mutant = human S1P5 K24Q mutant (Homo sapiens, UniProt Q9H228, K24Q); test: BRET-based cAMP Gi signaling assay, S1P5 K24Q; conditions: inverse agonism
human S1P5 K24R mutant = human S1P5 K24R mutant (Homo sapiens, UniProt Q9H228, K24R); test: BRET-based cAMP Gi signaling assay, S1P5 K24R; conditions: for BRET ratio, Supplementary Figure 6b: replicate values, listed as ONO; for pEC50: inverse agonism
human S1P5 C43F mutant = human S1P5 C43F mutant (Homo sapiens, UniProt Q9H228, C43F); test: BRET-based cAMP Gi signaling assay, S1P5 C43F; conditions: inverse agonism
human S1P5 Y89A mutant = human S1P5 Y89A mutant (Homo sapiens, UniProt Q9H228, Y89A); test: BRET-based cAMP Gi signaling assay, S1P5 Y89A; conditions: inverse agonism
human S1P5 Y89W mutant = human S1P5 Y89W mutant (Homo sapiens, UniProt Q9H228, Y89W); test: BRET-based cAMP Gi signaling assay, S1P5 Y89W; conditions: inverse agonism
human S1P5 N92A mutant = human S1P5 N92A mutant (Homo sapiens, UniProt Q9H228, N92A); test: BRET-based cAMP Gi signaling assay, S1P5 N92A; conditions: inverse agonism
human S1P5 N92C mutant = human S1P5 N92C mutant (Homo sapiens, UniProt Q9H228, N92C); test: BRET-based cAMP Gi signaling assay, S1P5 N92C; conditions: inverse agonism
human S1P5 R111A mutant = human S1P5 R111A mutant (Homo sapiens, UniProt Q9H228, R111A); test: BRET-based cAMP Gi signaling assay, S1P5 R111A; conditions: inverse agonism
human S1P5 R111Q mutant = human S1P5 R111Q mutant (Homo sapiens, UniProt Q9H228, R111Q); test: BRET-based cAMP Gi signaling assay, S1P5 R111Q; conditions: inverse agonism
[1] = Figure 2c source data, N/R = no response

Sequence of human S1P5 Y19F mutant (Q9H228 whole entry Y19F): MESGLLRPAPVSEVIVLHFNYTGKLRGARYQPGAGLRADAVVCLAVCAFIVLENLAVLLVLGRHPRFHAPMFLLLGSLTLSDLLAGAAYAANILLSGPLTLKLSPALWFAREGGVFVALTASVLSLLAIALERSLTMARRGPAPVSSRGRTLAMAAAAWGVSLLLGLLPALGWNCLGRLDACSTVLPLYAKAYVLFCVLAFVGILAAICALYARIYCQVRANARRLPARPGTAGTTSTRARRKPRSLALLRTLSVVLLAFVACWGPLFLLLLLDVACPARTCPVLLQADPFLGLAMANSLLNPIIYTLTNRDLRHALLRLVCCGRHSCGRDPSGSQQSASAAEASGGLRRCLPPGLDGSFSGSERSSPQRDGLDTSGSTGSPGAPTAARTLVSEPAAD
Sequence of human S1P5 Y89A mutant (Q9H228 whole entry Y89A): as the sequence (Q9H228 whole entry Y19F) above, with F19Y, Y89A counted along it
Sequence of human S1P5 C43F mutant (Q9H228 whole entry C43F): as the sequence (Q9H228 whole entry Y19F) above, with F19Y, C43F counted along it
Sequence of human S1P5 Y89W mutant (Q9H228 whole entry Y89W): as the sequence (Q9H228 whole entry Y19F) above, with F19Y, Y89W counted along it
Sequence of human S1P5 K24R mutant (Q9H228 whole entry K24R): as the sequence (Q9H228 whole entry Y19F) above, with F19Y, K24R counted along it
Sequence of human S1P5 R111A mutant (Q9H228 whole entry R111A): as the sequence (Q9H228 whole entry Y19F) above, with F19Y, R111A counted along it
Sequence of human S1P5 K24A mutant (Q9H228 whole entry K24A): as the sequence (Q9H228 whole entry Y19F) above, with F19Y, K24A counted along it
Sequence of human S1P5 Y19A mutant (Q9H228 whole entry Y19A): as the sequence (Q9H228 whole entry Y19F) above, with F19A counted along it
Sequence of human S1P5 N92A mutant (Q9H228 whole entry N92A): as the sequence (Q9H228 whole entry Y19F) above, with F19Y, N92A counted along it
Sequence of human S1P5 K24Q mutant (Q9H228 whole entry K24Q): as the sequence (Q9H228 whole entry Y19F) above, with F19Y, K24Q counted along it
Sequence of human S1P5 N92C mutant (Q9H228 whole entry N92C): as the sequence (Q9H228 whole entry Y19F) above, with F19Y, N92C counted along it
Sequence of human S1P5 R111Q mutant (Q9H228 whole entry R111Q): as the sequence (Q9H228 whole entry Y19F) above, with F19Y, R111Q counted along it

O=C(O)CCCN1CCc2cccc(OCCc3cccc4ccccc34)c2CC1 [ONO-5430608, 4-{6-[2-(1-naphthyl)ethoxy]-1,2,4,5-tetrahydro-3H-3-benzazepin-3-yl} butanoic acid]
ONO-5430608 pEC50, single experiments #1-#3 (human S1P5 Y19A mutant; [1]): N/R | ONO, pEC50, M (human S1P5 Y19A mutant; n=3, N/R = no response): N/R | BRET ratio, Supplementary Figure 6b (human S1P5 Y19F mutant; [ONO] 0.169351 nM): 0.7728 and 0.7856 and 0.7903 and 0.7898 and 0.7857 and 0.7721 and 0.7815 and 0.7858 and 0.7955 | BRET ratio, Supplementary Figure 6b (human S1P5 Y19F mutant; [ONO] 0.508053 nM): 0.7709 and 0.7829 and 0.7789 and 0.7882 and 0.7908 and 0.7857 and 0.7787 and 0.7826 and 0.7773 | BRET ratio, Supplementary Figure 6b (human S1P5 Y19F mutant; [ONO] 1.52416 nM): 0.7699 and 0.7813 and 0.7753 and 0.786 and 0.7843 and 0.7814 and 0.7777 and 0.78 and 0.7821 | BRET ratio, Supplementary Figure 6b (human S1P5 Y19F mutant; [ONO] 4.57247 nM): 0.7759 and 0.7968 and 0.7779 and 0.7827 and 0.7847 (2×) and 0.7768 and 0.7813 and 0.7893 | BRET ratio, Supplementary Figure 6b (human S1P5 Y19F mutant; [ONO] 13.7174 nM): 0.7824 (2×) and 0.7736 and 0.7864 and 0.7844 and 0.776 and 0.7899 and 0.7904 and 0.7943 | ONO-5430608 pEC50, single experiments #1-#3 (human S1P5 Y19F mutant; inverse agonism, Figure 2c source data, N/R = no response): N/R | ONO, pEC50, M (human S1P5 Y19F mutant; inverse agonism, n=3, N/R = no response): N/R | ONO-5430608 pEC50, single experiments #1-#3 (human S1P5 K24A mutant; [1]): N/R | ONO, pEC50, M (human S1P5 K24A mutant; n=3, N/R = no response): N/R | ONO-5430608 pEC50, single experiments #1-#3 (human S1P5 K24Q mutant; [1]): N/R | ONO, pEC50, M (human S1P5 K24Q mutant; n=3, N/R = no response): N/R | BRET ratio, Supplementary Figure 6b (human S1P5 K24R mutant; K24R, [ONO] 0.169351 nM): 0.7619 and 0.7605 and 0.7627 and 0.7643 and 0.765 and 0.7649 and 0.7612 and 0.7652 and 0.7621 | BRET ratio, Supplementary Figure 6b (human S1P5 K24R mutant; K24R, [ONO] 0.508053 nM): 0.7573 and 0.7607 and 0.7624 and 0.7643 and 0.7627 and 0.7635 and 0.7628 and 0.761 and 0.7617 | BRET ratio, Supplementary Figure 6b (human S1P5 K24R mutant; K24R, [ONO] 1.52416 nM): 0.7542 and 0.7548 and 0.7577 and 0.7568 (2×) and 0.7598 and 0.7585 and 0.7546 and 0.7523 | BRET ratio, Supplementary Figure 6b (human S1P5 K24R mutant; K24R, [ONO] 4.57247 nM): 0.7493 and 0.7475 and 0.7463 and 0.7487 and 0.7486 and 0.7479 and 0.7433 and 0.7453 and 0.7422 | BRET ratio, Supplementary Figure 6b (human S1P5 K24R mutant; K24R, [ONO] 13.7174 nM): 0.7349 and 0.7366 and 0.7407 and 0.7346 and 0.7367 and 0.7337 and 0.7316 and 0.7355 and 0.7298 | pEC50 (human S1P5 K24R mutant; ONO, pEC50, M, K24R, mean ± SD, n=3): 8.34 | pEC50 (human S1P5 K24R mutant; ONO-5430608 pEC50, single experiments #1-#3, K24R, Figure 2c source data): 8.33 and 8.31 and 8.39 | pEC50 (human S1P5 C43F mutant; ONO, pEC50, M, C43F, mean ± SD, n=3): 8.35 | pEC50 (human S1P5 C43F mutant; ONO-5430608 pEC50, single experiments #1-#3, C43F, Figure 2c source data): 8.41 and 8.35 and 8.30 | ONO-5430608 pEC50, single experiments #1-#3 (human S1P5 Y89A mutant; [1]): N/R | ONO, pEC50, M (human S1P5 Y89A mutant; n=3, N/R = no response): N/R and abolishes the functional response | pEC50 (human S1P5 Y89W mutant; ONO, pEC50, M, Y89W, mean ± SD, n=3): 8.53 | pEC50 (human S1P5 Y89W mutant; ONO-5430608 pEC50, single experiments #1-#3, Y89W, Figure 2c source data): 8.52 and 8.70 and 8.37 | ONO-5430608 pEC50, single experiments #1-#3 (human S1P5 N92A mutant; [1]): N/R | ONO, pEC50, M (human S1P5 N92A mutant; n=3, N/R = no response): N/R | ONO-5430608 pEC50, single experiments #1-#3 (human S1P5 N92C mutant; [1]): N/R | ONO, pEC50, M (human S1P5 N92C mutant; n=3, N/R = no response): N/R | ONO-5430608 pEC50, single experiments #1-#3 (human S1P5 R111A mutant; [1]): N/R | ONO, pEC50, M (human S1P5 R111A mutant; n=3, N/R = no response): N/R | ONO-5430608 pEC50, single experiments #1-#3 (human S1P5 R111Q mutant; [1]): N/R | ONO, pEC50, M (human S1P5 R111Q mutant; n=3, N/R = no response): N/R
